The numbers were not newly measured in US20240083845A1 (priority 2020, published 2024), which cites them from elsewhere.

Data set [1] deals with live virus. The settings on record: cited from earlier work.
The subject of data set [2] is ten further coronavirus strains. The conditions noted are these: read-out: Ki values against ten further coronavirus strains; cited from earlier work.

One may read the Ki as a dissociation constant, usually derived from enzyme kinetics or from competition with a known ligand. As for PF-00835231, the “activity in cell-based live virus assays” value in data set [1] was ~1 µM. In data set [2], the Ki is 0.03 to 4 nM.
